The subject of this test is Protoporphyrinogen IX Oxidase (PPO) R128L. The test is classed as cell-based, Amaranthus tuberculatus.

In turn, `C#CCN1C(=O)C(F)(F)Oc2cc(F)c(-n3c(=O)n(C)c(=S)n(C)c3=O)cc21` [BAS 850H] came in with a Tolerance factor of 28.7.
The compound `CC(C)N(C)S(=O)(=O)NC(=O)c1cc(-n2c(=O)cc(C(F)(F)F)n(C)c2=O)c(F)cc1Cl` [Saflufenacil] returned a Tolerance factor of 170.

The values are drawn from patent publication US10508285B2, “Method for screening of genes conferring increased tolerance to herbicides” (priority 2014, dated 2019).
